Results on 2 compounds are retold here after patent publication US6017933A, “Mannich bases of conjugated styryl ketones” (University of Saskatchewan Technologies Inc., priority 1999, dated 2000).

The subject of one data set is L1210 cells. Kind of data set: Cytotoxicity, murine L1210 leukemic cells. The class given is cell-based. The settings on record: Mus musculus, mean.
In the next data set the test system is human WiDr colon cancer. The note with it: hydrobromide salt; human WiDr colon cancer in vitro; cited from earlier work.
The test system of the next data set is CEM cells. Kind of data set: Cytotoxicity, CEM human T-lymphocytes. The note with it: for IC50: Homo sapiens, CCRF-CEM, read-out: CEM cells IC50; for TIL1210 (CEM cells): IC50 T-lymphocytes (CEM)/IC50 L1210; for TIP388 (CEM cells): IC50 T-lymphocytes (CEM)/IC50 P388.
A further data set relates to Molt 4/C8 cells. Kind of data set: Cytotoxicity, Molt 4/C8 human T-lymphocytes. The settings on record: for TIL1210 (Molt 4/C8 cells): IC50 T-lymphocytes (Molt 4/C8)/IC50 L1210; for TIP388 (Molt 4/C8 cells): IC50 T-lymphocytes (Molt 4/C8)/IC50 P388; for IC50: read-out: Molt 4/C8 cells IC50.
The next data set concerns P388 cells. Kind of data set: Cytotoxicity, murine P388 leukemic cells (P388 D1). The settings on record: read-out: P388 cells IC50.
The subject of data set [1] is P388 lymphocytic leukemia. Kind of data set: Murine P388 lymphocytic leukemia in vivo screen. As to the method:
In order to evaluate whether these promising results could be translated into in vivo activity, two representative compounds 9d and 10a were chosen. […] These two compounds were examined in the murine P388 screen and against certain human tumors in athymic mice.
(§1) The compounds were examined by the Developmental Therapeutics Program, National Cancer Institute, U.S.A. The murine P388 lymphocytic leukemia assay was conducted by a reported known method and the maximum ILS figures for 9d and 10a were 5 and 20% respectively using doses of 54 and 6.7 mg/kg respectively. An increase of 20% or more in the life spans is considered to be statistically significant. A reference drug 5-fluorouracil has an ILS of >35 using a dose of 20 mg/kg when given intraperitoneally for five days. Passage of human tumors in athymic mice was undertaken by a known method. No definitions of activity are available but as a general rule compounds causing a 60% reduction in tumor weights in one of these screens would be evaluated further.

A further data set deals with COLO 205. Kind of data set: COLO 205 human colon tumor xenograft in athymic mice. The class given is in vivo. As to the method: as §1
A general note: Xenograft models place foreign cells or tissue in a host animal.

Another data set has as its system SW-620. Kind of data set: SW-620 human colon tumor xenograft in athymic mice. The settings on record: 80 mg/kg. The data set is classed as in vivo. As to the method:
as §1

The next data set concerns NCI-H522. Kind of data set: NCI-H522 human non-small cell lung tumor xenograft in athymic mice. The class given is in vivo. The settings on record: 80 mg/kg. As to the method: as §1
Another data set concerns LOX IMVI. Kind of data set: LOX IMVI human melanoma xenograft in athymic mice. The class given is in vivo, human tumor in athymic mice. The settings on record: 80 mg/kg. As to the method:
as §1

Data set [2] concerns human Jurkat T cells. Kind of data set: Growth inhibition of Jurkat T cells, trypan blue exclusion test. The settings on record: read-out: growth of Jurkat T cells inhibited by 50% (IC50), 48 hours, 37° C., trypan blue. The data set is classed as cell-based. As to the method: All cell cultures used were maintained in RPMI 1640 medium, pH 7.4 supplanted with 10% fetal bovine serum and 50 μg/ml of gentamycin in 25 ml culture flasks at 37° C. in a humidified gas mixture of 5% carbon dioxide balanced with air and were passaged three times a week.
(§2) Cell viability was determined by the trypan blue exclusion test according to a literature procedure (Duke and Cohen, 1992). […] A flask containing ~10^6 cells/ml and 8 or […] of DMSO was used as the control. […] After 48 hours, cells were counted using a haemocytometer. The percentage of growth inhibition was calculated as follows: (C-T/C)×100 where C is the mean cell number in the control and T is the mean cell number in each treatment. […] All experiments were performed in triplicate.

Data set [3] deals with Jurkat T, LV-50, H-9 and Molt-3 cells. Kind of data set: Cell viability of Jurkat T, LV-50, H-9 and Molt-3 cells. The data set is classed as cell-based. The note with it: 10 μM, 24 hour. As to the method: FIG. 5 is a graph showing percent viability of Jurkat T, LV-50, H-9 and Molt 3 cells after exposure to 10 μM of compound 9d for a 24 hour period with error bars representing mean±standard deviation in three separate experiments;
as §2

Data set [4] relates to human Jurkat T cells. Kind of data set: DNA fragmentation by agarose gel electrophoresis. The class given is cell-based. The settings on record: Compound 9d 6 and 10 μM; melphalan 10 μM.
The test system of the next data set is human tumors. Kind of data set: Cytotoxicity, human tumor cell line panel (approximately 55 lines).
Data set [5] has as its system human Jurkat T cells. Kind of data set: Apoptosis, fluorescence microscopy with acridine orange and ethidium bromide. The settings on record: for percentage of apoptotic cells: 17 hours, control 4.4%.

SMILES strings stand for the structures. “Also recorded” adds a separate entry of the source.

Turning to `CCN(CC)CC(C)(C)C(=O)/C=C/c1ccc(Cl)cc1` [Compound 7], the IC50 in the data set on L1210 cells is 6.39 µM. In addition, the “activity relative to 5-fluorouracil” value with human WiDr colon cancer is reported as 1.3 times. In addition, in the data set on CEM cells, the IC50 is 1.94 µM, the “TIL1210 (CEM cells)” value worked out at 0.30 and the “TIP388 (CEM cells)” value stood at 0.88. Moreover, in the data set on Molt 4/C8 cells, the “TIL1210 (Molt 4/C8 cells)” value turned out to be 1.13, the “TIP388 (Molt 4/C8 cells)” value is recorded as 3.29 and the IC50 came to 7.24 µM. In addition, the “TIP388 and TIL1210 compared with compound 1b” value with Molt 4/C8 cells (human T-lymphocytes) was “inferior TIP388 and TIL1210 values than compound 1b”. In the data set with P388 cells, the IC50 was found to be 2.2 µM.

As for `CCN1CCC(O)(/C=C/c2ccc(C)cc2)C(C(=O)/C=C/c2ccc(C)cc2)C1` (stereo not shown) [Compound 9d], the IC50 with L1210 cells was determined as 6.08 µM; in the data set on human Jurkat T cells [2] it was 3.46 µM; in the data set with CEM cells, 14 µM; in the data set on Molt 4/C8 cells it was 27 µM; in the data set on P388 cells, 2.1 µM; with human tumors (read-out: human tumors IC50, mean graph midpoint, approximately 55 cell lines, hydrobromide salts used for 4a, 11a-e) it was 5.01 µM. Moreover, the “maximum ILS, murine P388” value in [1] (54 mg/kg) worked out at 5%. For the same compound, the “activity in the murine P388 screen” value in data set [1] (in words) was “inactive”. Besides, the “% ILS” value in the data set on COLO 205 (COLO 205, 200 mg/kg, increase in median time to reach a certain size) was 28%; in the data set on SW-620, 9%; in the data set with NCI-H522, -2%; in the data set with LOX IMVI, 12%. For the same compound, the “percent reduction in median tumor weight” value in the data set with COLO 205 (COLO 205, 200 mg/kg, percentage reduction of median tumor weight) amounted to 57%. Also, the “reduction in the weight of the human COLO 205 colon tumor” value in the data set on COLO 205 (athymic mice, Example 5) is listed as 60%. Moreover, the figures for the “% T/C” value in the data set with SW-620, in the data set with NCI-H522 and in the data set with LOX IMVI were 32%, 23% and 35%, respectively. Also, the “sensitivity of cell lines” value in [3] is recorded as “Jurkat T cells were the most sensitive in its response, although all cell cultures were affected”. Also, the “DNA ladder / DNA fragmentation” value with human Jurkat T cells [4] is on record as “did not show any DNA ladder; also recorded: no DNA fragmentation was detected”. For the same compound, the “TIL1210 (CEM cells)” value in the data set on CEM cells is listed as 2.31. In addition, the “TIP388 (CEM cells)” value in the data set on CEM cells came to 6.69. In the data set on CEM cells (IC50 T-lymphocytes (CEM)/IC50 human tumors), the “TIht (CEM cells)” value was found to be 2.80. Besides, the “cytotoxicity to murine leukemic and human tumor cells vs T-lymphocytes” value in the data set with Molt 4/C8 cells is “greater cytotoxicity to murine leukemic cells and human tumor cell lines than to T-lymphocytes”. Further, in the data set with Molt 4/C8 cells, the “TIL1210 (Molt 4/C8 cells)” value is 4.44. The “TIP388 (Molt 4/C8 cells)” value with Molt 4/C8 cells turned out to be 12.85. For the same compound, in the data set on Molt 4/C8 cells (IC50 T-lymphocytes (Molt 4/C8)/IC50 human tumors), the “TIht (Molt 4/C8 cells)” value was 5.39. Further, in the data set on human tumors (human tumor screen), the “selective/preferential cytotoxicity towards colon cancer cells” value is on record as “preferential cytotoxicity towards human colon cells; also recorded: preferential cytotoxicity to colon; also recorded: selective toxicity to human colon cancer cells”. The “apoptotic index / apoptosis induction (in words)” value with human Jurkat T cells [5] was “the apoptotic index increased almost two fold; also recorded: greater apoptotic index than melphalan; also recorded: more potent inducer of apoptosis; also recorded: potent apoptotic agent”. The “time after which apoptotic effects were detectable” value in the data set with human Jurkat T cells [5] stood at 3 h. In addition, the morphological features entry with human Jurkat T cells [5] (6 μM, 17 h) is “characteristic blebbing and apoptotic bodies”. The “percentage of apoptotic cells” value in the data set with human Jurkat T cells [5] (6 μM) worked out at 22%; in the data set on human Jurkat T cells [5] (10 μM), 43%. In addition, in the data set with human Jurkat T cells [5] (48 hours), the “death of treated cells” value is on record as “all the treated cells had died”.
